What is called melting point is the temperature, or range, at which the solid turns liquid.

Regarding `CCOC(=O)CCNc1ncccc1NC(=O)c1cccc(Cl)c1`, the melting point was in the range of 111 to 112 °C.
`Cn1c(=O)c2c(-c3nc(C4CC4)no3)ncn2c2ccccc21` yielded a melting point of 184 to 190 °C.
As for `COC(=O)C=Cc1cc(O)cc2cc(-c3ccc(O)cc3)oc12`, the melting point fell in the range of 231 to 234 °C.
Take `Cc1cc(=O)n2nc(S(=O)(=O)Cc3ccc(Cl)cc3)sc2n1`: the melting point fell in the range of 192 to 194 °C.
`Fc1cc(Cl)ccc1-n1nc2c(c1Cl)CCCC2` gave a melting point of 82 to 85 °C.
As for `CC(C)CCS(=O)(=O)NC(=O)CCc1cc(OC(C)C)nn1Cc1ccc(Cl)cc1Cl`, the melting point was 143 to 145 °C.
To `Nc1ccc(Oc2ccc(Oc3ccc(N)cc3)c(P(=O)(c3ccccc3)c3ccccc3)c2)cc1` belongs 205 to 208 °C; to `O=C(OCc1ccccc1)c1cc(Cl)nc(Cl)c1`, 39 to 41 °C.
As to `COc1ccc(S(C)(=O)=O)cc1-c1nc2ccc(C(C)(C)CNC=O)cc2[nH]1`, the melting point was in the range of 235 to 236 °C.
To `c1ccc2c(NCCc3c[nH]cn3)nsc2c1` belongs 222 to 224 °C; to `NS(=O)(=O)c1ccccc1S`, 113 to 140 °C; to `CCn1c(Nc2cc(C(F)(F)F)ccc2C(F)(F)F)nc(C(F)(F)F)c(Cl)c1=O`, 144 to 146 °C.
The figure for `CCC1CC(=Cc2ccc(N(CC)CC)cc2)C(=O)C(=Cc2ccc(N(CC)CC)cc2)C1` (centres undefined) is 141 °C; for `Nc1ncc(C2CCN(c3ccc(Cl)cc3)CC2)c(N)n1` it is 254 to 255 °C; for `CC(C)(C)S(=O)(=O)N[C@H]1CC[C@H](C(=O)O)CC1` it is 201 to 203 °C.
To `OCc1ccc(OCc2cn3c(Cl)cccc3n2)cc1` belongs 169 to 171 °C; to `CN(c1cccc2cc(-c3ncc(CCc4n[nH]c(=O)o4)s3)[nH]c12)S(=O)(=O)c1cccs1`, 255 to 256 °C; to `COc1cc2nc(N3CCN(C(=S)Nc4ccccc4)CC3)nc(N)c2cc1OC`, 138 to 140 °C.
Turning to `COc1cc(-c2cc(-c3ccccc3)c(N3CCOCC3)s2)nc(OC)c1OC`, the melting point was found to be 124 °C.
To `CCOC(=O)N1CC[C@H](N(Cc2ccccc2)Cc2ccccc2)[C@H](OC)C1` (relative stereo) belongs 95.2 °C.
The figure for `COC(=O)c1ccccc1NN=Cc1ccccc1` is 66.5 to 67.5 °C; for `CS(=O)c1n[nH]c2ccc(Cl)cc2c1=O` (centres undefined) it is 267 to 272 °C.
In the case of `COc1ccc(C=CC(=O)O)cc1-c1cc2c(cc1OCCCCCCCC(N)=O)C(C)(C)CCC2(C)C`, the melting point was in the range of 132 to 134 °C.
To `Clc1ccc(-c2nnnn2Cc2ccccc2)s1` belongs 176 to 177 °C.
As for `N#Cc1ccc(COc2ccc(C(=O)NC[C@@H](C(=O)NO)N3CCCCC3)cc2)cc1`, the melting point turned out to be 134 °C.
Take `c1ccc(C(c2ccc3[nH]nnc3c2)n2ccnc2)cc1` (centres undefined): the melting point was found to be 179 °C.
The figure for `COC(=O)CNC(=O)c1cc(C(=O)OC)c(O)c2ncc(Cc3ccc(F)cc3)cc12` is 209 to 210 °C; for `CC(C)(C)CCN1C(=O)C(N)C(=O)N(c2ccccc2F)c2ccccc21` (centres undefined) it is 98 to 100 °C; for `O=C1Nc2ccccc2C12COc1cc3c(cc12)CCO3` (centres undefined) it is 105 to 107 °C.
To `CC(C)c1cccc(C(C)C)c1N1C(=O)c2ccc3c4cccc5c(C#CCCCCO)ccc(c6ccc(c2c36)C1=O)c54` belongs more than 300 °C; to `COc1ccc(C(=O)NCCBr)c([N+](=O)[O-])c1`, 134 °C.
As for `CC(=O)Nc1nc2c(s1)C(=O)CCC2`, the melting point was in the range of 268 to 272 °C.
The figure for `CCOC(=O)c1c2n(c3cc(Cl)c(F)cc3c1=O)C(COC1CCCCO1)CS2` (centres undefined) is 183 to 186 °C.
To `O=S(=O)(c1ccccc1)n1c(-c2cccc(C(O)c3cc4ccccc4n3S(=O)(=O)c3ccccc3)c2)cc2ccccc21` (centres undefined) belongs 81 to 83 °C.

These data come from a melting point compilation (Tetko et al.; mined from patent text by program, amines drawn as free bases though some values may be those of a salt).
